# Source: US20090143293A1, “Peptide inhibitors of protein kinase C gamma for pain management” (priority 2002, published 2009)
# Entries after “also recorded” stand apart in the source; their conditions may differ. Like-named read-outs stand apart in the source and are kept apart here.
# Legend:
# [1] = test system: allodynia and/or hyperalgesia; details: capsaicin model; cited from earlier work
# [2] = test system: allodynia and/or hyperalgesia; details: formalin model; cited from earlier work
# [3] = test system: allodynia and/or hyperalgesia; details: neuropathy model; cited from earlier work
# [4] = test system: capsaicin-induced nociception; assay: Capsaicin-induced nociception, paw withdrawal latency (Example 2); format: in vivo, rat (adult male Sprague-Dawley); details: 10 μM Tat-conjugated peptide intrathecal 15 min before 3% capsaicin, FIG. 3; for response to nociception (paw withdrawal latency): low rate heating
# Method: Example 2 describes another study in support of the invention, where a γPKC V5 domain peptide (SEQ ID NO:4) was used for pain management in the capsaicin pain model. As a positive, comparative control, a V1 εPKC peptide (SEQ ID NO:6) was used. The peptides were conjugated to a Tat carrier peptide (SEQ ID NO:7) and were administered intrathecally to test animals prior to application of capsaicin to a paw. […] minutes after capsaicin application, paw withdrawal latency was measured at regular intervals for 75 minutes. The results are shown in FIG. 3, for Tat-derived γPCK (closed squares), Tat-derived-εPCK (open squares), the Tat carrier peptide alone (open triangles), and for animals treated with saline (open circles).
# Adult male Sprague-Dawley rats weighing between 200-250 g were lightly anaesthetized with urethane (800 mg/kg, i.p.). The dorsal surface of each animal was painted with India ink to ensure heat was applied evenly to the dorsal surface. Baseline measurements of all animals (n=10/test group) were taken for 45 minutes for both C-fibers (0.9° C./sec heating rate) and Aδ-fibers (6.5° C./sec heating rate). The test V5 peptide was derived from the V5 region of γPKC (SEQ ID NO:4) and was conjugated to a Tat-carrier peptide (SEQ ID NO:7). As a positive comparative control, a peptide from the V1 domain of εPKC (SEQ ID NO:6) was also conjugated to a Tat-carrier peptide (SEQ ID NO:7). The peptides were delivered intrathecally via direct lumbar puncture (10 μM peptide in 20 μL saline) 15 minutes prior to topical application of capsaicin to the left hind paw (100 μL of 3% capsaicin). Saline and the Tat-carrier peptide alone (SEQ ID NO:7) were also administered to two separate groups of control animals. A latency measurement was taken post peptide but prior to capsaicin application to control for direct peptide effect. Twenty minutes after the application of capsaicin, the ink was re-applied, and the dorsal surface of the hind paws was subjected to low rate heating for a maximum of 20 seconds. Foot withdrawal latencies were measured at 15 minute intervals.
# [5] = test system: formalin-induced spontaneous pain behaviors; assay: Dose response study in the formalin-induced pain model, rats at postnatal days 7, 15, 21; format: in vivo, rat
# Excerpt: In postnatal day 21 and older rats, intraplantar formalin produces a stereotypic biphasic behavioral pattern. Phase 1 is characterized by intense shaking, lifting and licking of the offending hindpaw produced by activation of peripheral nociceptors. Activation of descending inhibitory pathways follows, reducing spontaneous pain behaviors (quiescent phase). Quiescence is followed by a second phase, characterized by a revival of pain behaviors, and at least partially mediated by central mechanisms.
# A dose response study on rats at postnatal days 7, 15, and 21 using the γPCK V5 peptide identified herein by SEQ ID NO:4. In this study, the average pain scores as a function of time were determined, as described above, using the formalin-induced pain model. The peptide was administered at dosages of 2 μM, 10 μM and 20 μM fifteen minutes […] formalin injection. The results are shown in FIGS. 4A-4C for rats at postnatal day 7 (FIG. 4A), postnatal day 15 (FIG. 4B) and postnatal day 21 (FIG. 4C), where the 2 μM γPKC dose is represented by inverted triangles, the 10 μM dose of γPKC is represented by diamonds, and the 20 μM γPKC dose by circles. The control groups received 10 μM of the Tat carrier peptide and are represented by triangles.
# [6] = test system: formalin-induced spontaneous pain behaviors; assay: Formalin-induced nociception in rat pups, peptide given before formalin (Example 1); format: in vivo, rat (Sprague-Dawley pups)
# Method: In the study detailed in Example 1, the peptide identified herein as SEQ ID NO:4 was administered to rat pups on postnatal days 7, 15, and 21. The peptide was administered 15 minutes prior to intraplantar formalin injection. Following formalin injection, spontaneous pain behaviors were recorded every two minutes for one hour. In this study, an εPKC antagonist peptide from the V1 domain was used as a positive, comparative control. As noted above, the εV1-2 peptide, EVASLKPT (SEQ ID NO:6) has been described, for example, in U.S. Pat. No. 5,783,405 and by Dorn et al. (PNAS, […]:12798 (1999)).
# Both the εV1-2 peptide and the γPKC peptide V5-3 (SEQ ID NO:4) were conjugated via terminal cysteine residues to a carrier peptide, Tat (SEQ ID NO:7), for administration. One group of animals was treated with the Tat carrier peptide alone as a control. Another group of animals received only saline as a control.
# The results are shown in FIGS. 2A-2C, where average pain scores for rat pups treated with γPKC (closed squares), εPCK (open squares), the Tat carrier peptide alone (open triangles), or saline (open circles) are shown as a function of time, in minutes. The average pain score was determined by a time sampling method, where the animal's behavior was recorded every two minutes. A score of “1” was given if the animal was licking, shaking, or elevating the formalin-treated paw. The three pain scores over a six minute period of observation were summed into a single score, to give a maximum possible score of 3 for each animal for each six minute interval. The average pain score was determined from the individual scores of the animals in each treatment group. FIG. 2A corresponds to the average pain scores for 7 day old rat pups, where 1% formalin was administered to the paw 15 minutes post delivery of the peptide or control substance.
# Rat pups (male and female, Sprague-Dawley) were randomly divided at selected days after birth (postnatal days 7, 15, and 21) into groups for treatments. Each group received a PKC V5-domain test peptide, a positive, comparative control peptide, a carrier peptide control, or a saline control. The V5-domain test peptide was a γPKC peptide identified herein as SEQ ID NO:4 and as the comparative control peptide was a V1 domain εPKC peptide identified herein as SEQ ID NO:6. Peptides were reversibly conjugated to a Tat-peptide carrier (SEQ ID NO:7) via a cysteine-cysteine bond at their N termini. The peptides were administered via direct lumbar puncture (intrathecal administration) at the indicated dose, typically a dose of 20 μM PKC peptide in 5 μL (7 day old pups) or 10 μL (15 and 21 day old pups) saline.
# Fifteen minutes after administration of the peptides or the control substance, 1% formalin (7 day old pups) or 2.5% formalin (15 and 21 day old pups) was delivered intradermally to the paw. Spontaneous pain behaviors were recorded every two minutes for one hour following formalin injection. The time sampling method for behavioral observation was employed, in which the observer rapidly recorded the behavior of the animals every two minutes (Teng et al., Pain, 76:337 (1998). A score of “1” was given if the animal was licking, shaking, or elevating the hindpaw. A six minute period of observation provided a maximum pain score of “3” for each animal.
# [7] = target: T1, εPKC (Homo sapiens, UniProt Q02156); details: reported in the literature; listed as εV1-2 peptide; cited from earlier work
# T1 sequence (Q02156 1-737): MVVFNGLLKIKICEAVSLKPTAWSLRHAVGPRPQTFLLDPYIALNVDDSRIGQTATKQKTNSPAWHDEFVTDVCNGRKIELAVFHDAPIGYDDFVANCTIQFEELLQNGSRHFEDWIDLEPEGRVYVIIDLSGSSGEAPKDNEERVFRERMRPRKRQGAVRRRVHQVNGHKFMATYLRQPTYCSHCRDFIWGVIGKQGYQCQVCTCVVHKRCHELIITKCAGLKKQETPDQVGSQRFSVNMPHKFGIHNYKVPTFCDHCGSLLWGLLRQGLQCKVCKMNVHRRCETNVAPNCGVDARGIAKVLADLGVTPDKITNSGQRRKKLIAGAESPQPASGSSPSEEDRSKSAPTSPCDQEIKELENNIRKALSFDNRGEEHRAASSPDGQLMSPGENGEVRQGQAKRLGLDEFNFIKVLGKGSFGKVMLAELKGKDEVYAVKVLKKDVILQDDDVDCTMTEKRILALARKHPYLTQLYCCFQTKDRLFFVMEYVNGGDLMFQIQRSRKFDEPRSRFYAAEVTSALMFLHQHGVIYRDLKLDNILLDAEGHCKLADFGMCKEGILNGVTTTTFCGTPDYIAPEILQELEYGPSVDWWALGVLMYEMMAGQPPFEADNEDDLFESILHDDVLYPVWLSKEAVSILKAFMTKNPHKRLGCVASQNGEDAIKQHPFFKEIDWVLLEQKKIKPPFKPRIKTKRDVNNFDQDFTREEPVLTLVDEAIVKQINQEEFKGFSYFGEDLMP
# [8] = test system: pain; details: reported in WO 00/01415; listed as εV1-2 peptide; cited from earlier work
# [9] = 2, 10, 20 μM, postnatal days 7, 15, 21, FIGS. 4A-4C
# [10] = 7 day old rat pups, 1% formalin to paw 15 min after intrathecal Tat-conjugated peptide, FIG. 2A
# [11] = 15 day old rat pups, 2.5% formalin 15 min after intrathecal Tat-conjugated peptide, FIG. 2B
# [12] = 21 day old rat pups, 2.5% formalin 15 min after intrathecal Tat-conjugated peptide, FIG. 2C
compound,measurement,setting,value
CCCCCCCCCCCCC(=O)N1CCCCC1CNC(=O)C(N)CCCCN (centres unmarked) [NPC15437],allodynia and/or hyperalgesia induced by the inflammatory agents,[1],reversal of the allodynia and/or hyperalgesia
COc1ccc2c(c[n+](C)c3c4cc5c(cc4ccc23)OCO5)c1OC [chelerythrine],allodynia and/or hyperalgesia induced by the inflammatory agents,[2],reversal of the allodynia and/or hyperalgesia
calphostin,allodynia and/or hyperalgesia induced by the inflammatory agents,[3],reversal of the allodynia and/or hyperalgesia
"RLVLAS (peptide derived from the V5 domain of the gamma isozyme of PKC) [SEQ ID NO:4, peptide derived from the V5 domain of the γ isozyme of PKC]",response to nociception (paw withdrawal latency),[4],"induced an analgesic effect, producing an increase of threshold in the initial time point"
same,response to nociception (paw withdrawal latency),[4]; listed as γPKC V5 domain peptide,effective to modulate the response to nociception
same,phase 1 of formalin-induced spontaneous pain behaviors,[5]; [9],but not phase 1
same,phase 2 of formalin-induced spontaneous pain behaviors,[5]; [9],attenuated phase 2
same,attenuation of phase 2 behaviors,"[5]; 7 day old rats, highest dose (20 μM)",mild anti-nociception
same,duration of phase 2 behaviors,[5]; 15 day old rats,shortened the duration of phase 2 behaviors
same,duration of phase 2 behaviors,[5]; 21 day old rats,shortened the duration of phase 2 behaviors
same,attenuation of phase 2 behaviors,"[5]; 21 day old rats, all three doses (2, 10, 20 μM)",more robust anti-nociception
same,average pain score relative to control pups,[6]; [10],effective to lessen pain
same,average pain score relative to control pups,[6]; [11],effective to alleviate pain
same,average pain score relative to control pups,[6]; [12],provided a reduction in pain
same,duration of formalin-induced pain,[6]; summary of FIGS. 2A-2C,effectively shortened the duration
same,formalin-induced spontaneous pain behaviors,"[6]; summary of FIGS. 2A-2C, postnatal days 7, 15, 21",attenuated formalin-induced spontaneous pain behaviors
"EVASLKPT [SEQ ID NO:6, peptide derived from the V1 domain of εPKC, positive comparative control, reference compound]",selective inhibition of εPKC,[7],selective inhibitor of εPKC; also recorded: selectively inhibit PCKε action
same,pain,[8],reported to lessen pain; also recorded: ameliorate pain
same,reducing the paw withdrawal latency,[4],about 50%
same,response to nociception (paw withdrawal latency),[4],anti-hyperalgesic
same,average pain score relative to control pups,[6]; [10],provided a greater attenuation of formalin-induced nociception
same,average pain score relative to control pups,[6]; [11],contribute to nociception relief
same,average pain score relative to control pups,[6]; [12],contribute to nociception relief
